Test results taken from patent US12351559B2 (Biohaven Therapeutics Ltd., priority 2014, dated 2025).

Molecular target: T1, Kv7.2/7.3 (Homo sapiens, UniProt O43525+O43526)
T1 construct: host or cells: HEK cells, tetracycline-inducible expression
Test: Kv7.2/7.3 activation assay, QPatch planar patch-clamp, single concentration screen
Type: cell-based
Parameters: key: <1.2-fold increase over baseline (−); +/−: as a range from <1.2-fold increase over baseline (−) up to >6-fold increase over baseline (+++); as a range from <1.2-fold increase over baseline (−) up to >6-fold increase over baseline (+++); as a range from <1.2-fold increase over baseline (−) up to >6-fold increase over baseline (+++); >6-fold increase over baseline (+++)
Conditions: Kv7.2/Kv7.3 co-expressing HEK cells

[1] = compound 3 μM, steady-state current at end of 2 s pulse to −30 mV

| Structure (SMILES) | Kv7.2/7.3 Activity: increase in current over baseline [1] | Kv7.2/7.3 Activity: increase in current over baseline (compound @ 1 μM) |
| --- | --- | --- |
| CC(C)(O)CC(=O)Nc1nc2ccc(C(C)(C)O)cc2n1C1CCC1 [Example 85, N-(1-cyclobutyl-6-(2-hydroxypropan-2-yl)-1H-benzo[d]imidazol-2-yl)-3-hydroxy-3-methylbutanamide] | +/− |  |
| C[C@H](C(=O)Nc1nc2ccc(C(C)(C)O)cc2n1C1CCC1)C(C)(C)C [Example 86, (S)-N-(1-cyclobutyl-6-(2-hydroxypropan-2-yl)-1H-benzo[d]imidazol-2-yl)-2,3,3-trimethylbutanamide] | +++ (>6-fold increase over baseline (+++)) |  |
| CC(C)(O)c1ccc2nc(NC(=O)C3CC4(CCC4)C3)n(C3CCC3)c2c1 [Example 87, N-(1-cyclobutyl-6-(2-hydroxypropan-2-yl)-1H-benzo[d]imidazol-2-yl)spiro[3.3]heptane-2-carboxamide] | ++ |  |
| C[C@](O)(CC(=O)Nc1nc2ccc(C(F)(F)F)cc2n1C1CCC1)c1ccccc1 [Example 88, (S)-N-(1-cyclobutyl-6-(trifluoromethyl)-1H-benzo[d]imidazol-2-yl)-3-hydroxy-3-phenylbutanamide] | + |  |
| CC(C)(O)c1ccc2nc(NC(=O)[C@@H]3CC3(C)C)n(C3CCC3)c2c1 [Example 89, (R)-N-(1-cyclobutyl-6-(2-hydroxypropan-2-yl)-1H-benzo[d]imidazol-2-yl)-2,2-dimethylcyclopropane-1-carboxamide] | ++ |  |
| CC(C)(C)C(=O)Nc1nc2ccc(C(C)(C)O)cc2n1C1CCC1 [Example 90, N-(1-cyclobutyl-6-(2-hydroxypropan-2-yl)-1H-benzo[d]imidazol-2-yl)pivalamide] | +/− |  |
| CC1(n2c(NC(=O)C[C@](C)(O)c3ccccc3)nc3ccc(C#N)cc32)CCC1 [Example 95, (S)-N-(6-cyano-1-(1-methylcyclobutyl)-1H-benzo[d]imidazol-2-yl)-3-hydroxy-3-phenylbutanamide] | ++ |  |
| CC1(n2c(NC(=O)C[C@@](C)(O)c3ccccc3)nc3ccc(C#N)cc32)CCC1 [Example 96, (R)-N-(6-cyano-1-(1-methylcyclobutyl)-1H-benzo[d]imidazol-2-yl)-3-hydroxy-3-phenylbutanamide] | ++ |  |
| CC(C)(O)c1ccc2nc(NC(=O)CC(O)(C3CC3)C3CC3)n(C3CCC3)c2c1 [Example 97, N-(1-cyclobutyl-6-(2-hydroxypropan-2-yl)-1H-benzo[d]imidazol-2-yl)-3,3-dicyclopropyl-3-hydroxypropanamide] | +/− |  |
| O=C(CC(O)(C1CC1)C1CC1)Nc1nc2ccc(C(F)(F)F)cc2n1C1CCC1 [Example 98, N-(1-cyclobutyl-6-(trifluoromethyl)-1H-benzo[d]imidazol-2-yl)-3,3-dicyclopropyl-3-hydroxypropanamide] | + |  |
| C[C@](O)(CC(=O)Nc1nc2ccc(Cl)cc2n1C1CCC1)c1ccccc1 [Example 99, (S)-N-(6-chloro-1-cyclobutyl-1H-benzo[d]imidazol-2-yl)-3-hydroxy-3-phenylbutanamide] | + |  |
| C[C@@](O)(CC(=O)Nc1nc2ccc(Cl)cc2n1C1CCC1)c1ccccc1 [Example 100, (R)-N-(6-chloro-1-cyclobutyl-1H-benzo[d]imidazol-2-yl)-3-hydroxy-3-phenylbutanamide] | + |  |
| CC(C)(O)c1ccc2nc(NC(=O)C3CC34CCC4)n(C3CCC3)c2c1 (centres unmarked) [Example 101, N-(1-cyclobutyl-6-(2-hydroxypropan-2-yl)-1H-benzo[d]imidazol-2-yl)spiro[2.3]hexane-1-carboxamide] | + |  |
| CC(C)(O)c1ccc2nc(NC(=O)C3CCC(F)(F)C3)n(C3CCC3)c2c1 (centres unmarked) [Example 102, N-(1-cyclobutyl-6-(2-hydroxypropan-2-yl)-1H-benzo[d]imidazol-2-yl)-3,3-difluorocyclopentane-1-carboxamide] | +/− |  |
| C[C@](O)(CC(=O)Nc1nc2ccc(Cl)cc2n1C1CCC1)c1ccc(F)cc1 [Example 103, (S)-N-(6-chloro-1-cyclobutyl-1H-benzo[d]imidazol-2-yl)-3-(4-fluorophenyl)-3-hydroxybutanamide] | + |  |
| CC(C)(C)CC(=O)Nc1nc2ccc(C(C)(C)O)cc2n1-c1ccc(F)cc1 [Example 104, N-(1-(4-fluorophenyl)-6-(2-hydroxypropan-2-yl)-1H-benzo[d]imidazol-2-yl)-3,3-dimethylbutanamide] |  | +(@ 1 μM) |

| Structure (SMILES) | Kv7.2/7.3 Activity: increase in current over baseline [1] | Kv7.2/7.3 Activity: increase in current over baseline (compound @ 1 μM) |
| --- | --- | --- |
| CC(C)(O)c1ccc2nc(NC(=O)C3CC34CC4)n(C3CCC3)c2c1 (centres unmarked) [Example 105, N-(1-cyclobutyl-6-(2-hydroxypropan-2-yl)-1H-benzo[d]imidazol-2-yl)spiro[2.2]pentane-1-carboxamide] | + |  |
| CCC(O)(CC)c1ccc2nc(NC(=O)C3CC34CC4)n(C3CCC3)c2c1 (centres unmarked) [Example 106, N-(1-cyclobutyl-6-(3-hydroxypentan-3-yl)-1H-benzo[d]imidazol-2-yl)spiro[2.2]pentane-1-carboxamide] | +/− |  |
| C[C@](O)(CC(=O)Nc1nc2ccc(Cl)cc2n1-c1ccc(F)cc1)c1ccccc1 [Example 107, (S)-N-(6-chloro-1-(4-fluorophenyl)-1H-benzo[d]imidazol-2-yl)-3-hydroxy-3-phenylbutanamide] | + |  |
| C[C@@](O)(CC(=O)Nc1nc2ccc(Cl)cc2n1-c1ccc(F)cc1)c1ccccc1 [Example 108, (R)-N-(6-chloro-1-(4-fluorophenyl)-1H-benzo[d]imidazol-2-yl)-3-hydroxy-3-phenylbutanamide] | +/− |  |
| CC(C)(O)c1ccc2nc(NC(=O)C3CC34CC4)n(-c3ccc(F)cc3)c2c1 (centres unmarked) [Example 109, N-(1-(4-fluorophenyl)-6-(2-hydroxypropan-2-yl)-1H-benzo[d]imidazol-2-yl)spiro[2.2]pentane-1-carboxamide] | + |  |
| CCOC(=O)Cc1ccc2nc(NC(=O)CC(C)(C)C)n(C3CCC3)c2c1F [Example 110, ethyl 2-(1-cyclobutyl-2-(3,3-dimethylbutanamido)-7-fluoro-1H-benzo[d]imidazol-6-yl)acetate] | + |  |
| CCOC(=O)Cc1ccc2nc(NC(=O)[C@H]3CC3(C)C)n(C3CCC3)c2c1F [Example 111, ethyl (S)-2-(1-cyclobutyl-2-(2,2-dimethylcyclopropane-1-carboxamido)-7-fluoro-1H-benzo[d]imidazol-6-yl)acetate] | + |  |
| CCOC(=O)Cc1ccc2nc(NC(=O)CC(C)(C)C)n(-c3ccc(F)cc3)c2c1F [Example 112, ethyl 2-(2-(3,3-dimethylbutanamido)-7-fluoro-1-(4-fluorophenyl)-1H-benzo[d]imidazol-6-yl)acetate] | ++ |  |
| CC(C)(O)Cc1ccc2nc(NC(=O)[C@H]3CC3(C)C)n(C3CCC3)c2c1F [Example 113, (S)-N-(1-cyclobutyl-7-fluoro-6-(2-hydroxy-2-methylpropyl)-1H-benzo[d]imidazol-2-yl)-2,2-dimethylcyclopropane-1-carboxamide] | + |  |
| CC(C)(C)CC(=O)Nc1nc2ccc(CC(C)(C)O)c(F)c2n1C1CCC1 [Example 114, N-(1-cyclobutyl-7-fluoro-6-(2-hydroxy-2-methylpropyl)-1H-benzo[d]imidazol-2-yl)-3,3-dimethylbutanamide] | + |  |
| CC(C)(O)Cc1ccc2nc(NC(=O)[C@H]3CC3(C)C)n(-c3ccc(F)cc3)c2c1F [Example 115, (S)-N-(7-fluoro-1-(4-fluorophenyl)-6-(2-hydroxy-2-methylpropyl)-1H-benzo[d]imidazol-2-yl)-2,2-dimethylcyclopropane-1-carboxamide] | + |  |
| CC(C)(C)CC(=O)Nc1nc2ccc(CC(C)(C)O)c(F)c2n1-c1ccc(F)cc1 [Example 116, N-(7-fluoro-1-(4-fluorophenyl)-6-(2-hydroxy-2-methylpropyl)-1H-benzo[d]imidazol-2-yl)-3,3-dimethylbutanamide] | + |  |
| CC(C)(C)CC(=O)Nc1nc2ccc(CC(=O)O)c(F)c2n1C1CCC1 [Example 117, 2-(1-cyclobutyl-2-(3,3-dimethylbutanamido)-7-fluoro-1H-benzo[d]imidazol-6-yl)acetic acid] | +/− |  |
| CN(C)C(=O)Cc1ccc2nc(NC(=O)CC(C)(C)C)n(C3CCC3)c2c1F [Example 118, N-(1-cyclobutyl-6-(2-(dimethylamino)-2-oxoethyl)-7-fluoro-1H-benzo[d]imidazol-2-yl)-3,3-dimethylbutanamide] | + |  |
| Cc1cc2nc(NC(=O)C[C@](C)(O)c3ccccc3)n(C(C)(C)C)c2cc1C#N [Example 119, (S)-N-(1-(tert-butyl)-6-cyano-5-methyl-1H-benzo[d]imidazol-2-yl)-3-hydroxy-3-phenylbutanamide] | +/− |  |
| Cc1cc2nc(NC(=O)C[C@@](C)(O)c3ccccc3)n(C(C)(C)C)c2cc1C#N [Example 120, (R)-N-(1-(tert-butyl)-6-cyano-5-methyl-1H-benzo[d]imidazol-2-yl)-3-hydroxy-3-phenylbutanamide] | + |  |
